≈ marks a conversion by molar mass, not a printed value.
Assays:
[1] = tested on: Bel-7402; assay: Compound was tested for its cytotoxic activity against human Bel-7402 Hepatocellular carcinoma cell line; format: functional; conditions: read-out: ID50 (the source's name)
[2] = tested on: HL-60; assay: Compound was tested for its cytotoxic activity against human HL-60 promyelocytic leukemia cell line; format: functional; conditions: read-out: ID50 (the source's name)

Row | Compound | IC50 [1] | IC50 [2]
1 | C=C1C(=O)O[C@@H]2CC(C)=C([C@@H](C)CCCOC(C)=O)[C@H](OC(=O)/C(Cc3ccccc3)=N/OCCCC)[C@H]12 | 7.2 µg/mL (≈ 13.7 µM) | 4.3 µg/mL (≈ 8.18 µM)
2 | C=C1C(=O)O[C@@H]2CC(C)=C([C@@H](C)CCCOC(C)=O)[C@H](O)[C@H]12 | 15.6 µg/mL (≈ 50.6 µM) | 18.4 µg/mL (≈ 59.7 µM)

Source: ChEMBL document CHEMBL1137950, “Studies on 1-O-acetylbritannilactone and its derivative, (2-O-butyloxime-3-phenyl)-propionyl-1-O-acetylbritannilactone ester” (2004)
